Where “and” joins values, the source holds several entries; their conditions need not be identical. Equal values may be shown once. Where a name gives a salt, the structure may show the parent alone. Read-outs that look alike come from different tables or passages of the source.
Columns and labels:
[1] = system: HIV (LAV-1); assay: HIV plaque formation in HT4-6C cells (CD4+ HeLa cells) infected with LAV-1; type: cell-based
Procedure: In this experiment the compound of Example 7 (1-O- stearoylglycero-rac-3-phospho-5′-(3′-deoxy, 3′-azido)thymidine) was incorporated into liposomes containing 10 mole percent of the liponucleotide as indicated in Example 8. This material was diluted with RPMI medium to the desired concentration and added to HT4-6C cells (CD4+ HeLa cells) obtained from Dr. Bruce Chesbro of the Rocky Mountain National Laboratories (Hamilton, Mont.) which had been infected with LAV-1 as noted earlier in this example. After a 3 day incubation at 37° C., the cells were washed with PBS, fixed and stained with crystal violet and the plaques were counted.
PalmitoylAZT was incorporated into liposomes as noted in Example 8 and incubated with LAV-1 infected HT4-6C cells as noted in Examples 10 and 11. 0.8 uM palmitoylAZT inhibited plaque formation by 25% (134 plaques versus 176 in the untreated control).

[2] = system: HIV (LAV-1 strain); type: cell-based; conditions: for inhibition of HIV p24 production: Experiment H747-1b, CEM cells; for EC50: CEM wild type
Procedure: 6.42 micromoles of dioleoylphosphatidylcholine, 3.85 micromoles of cholesterol, 1.28 micromoles of dioleoylphosphatidylglycerol and 1.28 micromoles of dimyristoylphosphatidyl-azidothymidine were mixed in a sterile 2.0 ml glass vial and the solvent was removed in vacuo in a rotary evaporator. In some experiments, dimyristoylphosphatidylazidothymidine was replaced with either dimyristoylphosphatidyldideoxythymidine, dimyristoylphosphatidyldideoxycytidine or azidothymidine diphosphate dimyristoylglycerol; control liposomes were prepared by omitting the antiviral liponucleotide. The dried film was placed under high vacuum overnight at room temperature to remove traces of solvent. The lipid film was hydrated at 30° C. with 0.3 ml of sterile 10 mM sodium acetate buffer (pH 5.0) containing isotonic dextrose and the ampule was sealed. The mixture was vortexed intermittently for 10 minutes followed by sonication using a Heat Systems Ultrasonics sonicator with a cup horn generator (431B) at output control setting #9 for 90 to 120 minutes at which time the sample is clarified. This sonicated preparation was diluted with sterile RPMI buffer and added to the tissue culture wells at the concentration indicated.
(§1) The human T lymphoblastoid cell line, CCRG-CEM (hereafter referred to as CEM), was grown in RPMI 1640 medium containing 100 U/ml penicillin G, 100 ug/ml streptomycin, 2 mM glutamine and 10% fetal bovine serum (Hyclone Laboratories, Logan, Utah). Cells were infected with the LAV-1 strain (L. Montagnier, Paris, France) at a multiplicity of infection of one tissue culture 50% infectious dose (TCID50)/cell for 60 minutes at 37° C. in medium containing […]. CEM cells were infected in suspension at 6×10^4 cells/ml, washed three times by centrifugation and resuspension and then distributed in 96-well plates at 6×10^4 cells/well before addition of medium containing the liposomal antiretroviral liponucleotide drugs.
(§2) Antiviral activity was assayed after 3 days by the inhibition of the production of HIV p24 (gag) antigen in the cell free culture medium of the infected cells exposed to different concentrations of drug; p24 antigen was measured by ELISA (Abbott Laboratories, Chicago, Ill.) according to the manufacturer's instructions. The data are the average of two determinations and are expressed as percentage of a control incubated in the absence of drugs.

[3] = system: HIV in CEM tk- cells; assay: Inhibition of HIV p24 production in thymidine kinase deficient CEM tk- cells; type: cell-based; conditions: Experiment H637-1b, AZT 0.2 to 100 uM
Procedure: as §1, §2
In this experiment, CEM cells were replaced with mutant cells (provided by Dr. Dennis Carson, Scripps Clinic, San Diego, Calif.) which lack the thymidine kinase enzyme (CEM tk−).

[4] = system: HIV in CEM (wild type) cells; assay: Experiment I276: antiviral protection of CEM cells by preincubation, p24 in supernates; type: cell-based; conditions: 3 day preincubation; 24 and 48 hours in normal media after removal of drug
Procedure: The cells were then washed twice with PBS, and fresh RPMI media added. Each group of cells was then divided into three batches. One batch was immediately infected with HIV, as noted above; after washing away unattached HIV, the sample was allowed to incubate in media alone for 3 days. Two other batches were allowed to incubate in media alone for either 24 or 48 hours to allow any intracellular antiviral agent present to become depleted. Then they were infected with HIV, the cells washed free of virus, and fresh RPMI media added. After 3 days of further incubation, the supernates of all batches were tested for the presence of p24 protein.
CEM cells were subjected to HIV infection without preincubation; drug was added following HIV infection as indicated, and the cells were incubated for 3 days.
After a further incubation for 3 days, p24 was measured.

[5] = system: HSV-1; assay: Herpes simplex virus plaque reduction assay, HSV-1 in Wi-38 cells; type: cell-based, Herpes simplex virus type 1
Procedure: Wi-38 cells were obtained from American Type Culture Collection (Rockville, Md. 20852) and grown in Dulbecco's minimum essential medium (DMEM) with 10% fetal calf serum (FCS). The cells were grown in 250 cm square bottles until reaching confluence.
Herpes simplex virus (HSV) type 1 (HSV-1) and type 2 (HSV-2) were obtained from the American Type Culture Collection. Both virus stocks were prepared in Wi-38 cells; extensive cytopathic effects (CPD) were observed when the stock virus was harvested by a single freezing and thawing and the cell debris was clarified by low speed centrifugation (2000 rpm). Supernatant fluids containing the virus were aliquoted into small vials and stored at −80° C. Both HSV-1 and HSV-2 stocks were titered in Wi-38 cells before use in the experiments.
The plaque reduction assay was used to measure the antiviral effect of phosphatidylacyclovir or free ACV. Wi-38 cells were trypsinized with 0.25% trypsin for 5 min. The cells were harvested and centrifuged to remove residual trypsin and the cell pellet was resuspended in DMEM with 10% FCS. The Wi-38 cells were plated in a 96 well plate ([…] cells/well) for one hour. The infected cells were then treated with phosphatidylacyclovir or ACV. The antiviral agents were prepared in stock solutions which were then diluted two-fold with 2% FBS in DMEM containing 0.5% methylcellulose. 100 μl of each diluted antiviral agent was added into each well of HSV infected cells.
The control and drug-treated cell cultures were incubated in a 37° C. incubator with 5% carbon dioxide for 24 hours. […] The dye was rinsed off with tap water and the plate was dried and plaques were counted. The antiviral effect of ACV or phosphatidylacyclovir was determined by measurement of plaque reduction as shown in the example below.

[6] = 10 uM liponucleotide in liposomes, 3 day incubation

With CCCCCCCCCCCCCCCCCC(=O)OCC(O)COP(=O)(O)OC[C@H]1O[C@@H](n2cc(C)c(=O)[nH]c2=O)C[C@@H]1N=[N+]=[N-] (mixture of isomers) [Example 7, 1-O-stearoylglycero-rac-3-phospho-5′-(3′-azido-3′-deoxy)thymidine] the “% of Untreated Control” value ([1]; 0.0316 uM) was 78%, the “Plaques, Average” value ([1]; 0.0316 uM) was 43 and the “% of Untreated Control” value ([1]; 0.100 uM) was 71%. For the same molecule, the “Plaques, Average” value ([1]; 0.100 uM) was 39, the “% of Untreated Control” value ([1]; 0.316 uM) was 58% and the “Plaques, Average” value ([1]; 0.316 uM) was 32. The “% of Untreated Control” value ([1]; 1.0 uM) was 29%, the “Plaques, Average” value ([1]; 1.0 uM) was 16 and the “% of Untreated Control” value ([1]; 3.16 uM) was 13%. The “Plaques, Average” value ([1]; 3.16 uM) was 7, the “% of Untreated Control” value [1, 6] was 2% and the “Plaques, Average” value [1, 6] was 1. For the same molecule, the IC50 ([1]; HT4-6C cells infected with LAV-1, liposomes, read-out: concentration required to produce 50% inhibition of HIV plaque formation) was ~0.35 µM.

Cc1cn([C@H]2CC[C@@H](CO)O2)c(=O)[nH]c1=O [Example N2, 2′,3′-dideoxythymidine, reference compound] was tested, and the “inhibition of HIV p24 production” value [2] was “weak inhibitor of HIV p24 production”.

For CCCCCCCCCCCCCC(=O)OC[C@@H](COP(=O)(O)OC[C@@H]1CC[C@H](n2cc(C)c(=O)[nH]c2=O)O1)OC(=O)CCCCCCCCCCCCC [LN2, 1,2-Dimyristoylglycerophospho-5′-(3′-deoxy)thymidine, Monosodium Salt], the “effect on p24 production” value [3] was “capable of reducing p24 production”, the EC50 ([2]; Experiment H533-1, liposomes containing 10 mole percent liponucleotide, p24 after 3 days, read-out: amount of drug required to reduce virus production by 50% (E.D. 50)) was 30 µM and the “inhibition of HIV p24 production” value [2] was “somewhat more effective than the free nucleoside”. For the same molecule, the EC50 ([2]; Experiment H805-1, liposomes, p24, read-out: ED50 (the source's name)) was 20 µM.

In the case of Cc1cn([C@H]2C[C@H](N=[N+]=[N-])[C@@H](CO)O2)c(=O)[nH]c1=O [Example N1, 3′-azido-3′-deoxythymidine, reference compound], the “protection from HIV after removal of the drug” value [4] is reported as “failed to protect the cells from HIV infection”, the “effect on p24 production” value [3] is reported as “completely without effect” and the “effectiveness in reducing p24, free AZT versus liponucleotide” value ([2]; Experiment H747-1a, low concentrations below 0.1 uM) is reported as “more effective than the liponucleotide”.

With CCCCCCCCCCCCCC(=O)OCC(COP(=O)(O)OCCOCn1cnc2c(=O)[nH]c(N)nc21)OC(=O)CCCCCCCCCCCCC (stereo in doubt) [PhosphatidylACV, dimyristoylphosphatidylacycloguanosine] the IC50 ([5]; HSV-1 infected Wi-38 cells, plaque reduction, read-out: concentration which produces 50% inhibition) was 2 µM, the “% no Drug” value ([5]; PhosphatidylACV 0.84 uM) was 91% and the “plaques (determinations 1 and 2)” value ([5]; PhosphatidylACV 0.84 uM) was 24 and 26. The “plaques, mean” value ([5]; PhosphatidylACV 0.84 uM) was 25, the “% no Drug” value ([5]; PhosphatidylACV 1.67 uM) was 67% and the “plaques (determinations 1 and 2)” value ([5]; PhosphatidylACV 1.67 uM) was 17 and 20. For the same molecule, the “plaques, mean” value ([5]; PhosphatidylACV 1.67 uM) was 18.5, the “% no Drug” value ([5]; PhosphatidylACV 3.3 uM) was 40% and the “plaques (determinations 1 and 2)” value ([5]; PhosphatidylACV 3.3 uM) was 10 and 12. The “plaques, mean” value ([5]; PhosphatidylACV 3.3 uM) was 11, the “% no Drug” value ([5]; PhosphatidylACV 6.7 uM) was 27% and the “plaques (determinations 1 and 2)” value ([5]; PhosphatidylACV 6.7 uM) was 6 and 9. The “plaques, mean” value ([5]; PhosphatidylACV 6.7 uM) was 7.5, the “% no Drug” value ([5]; PhosphatidylACV 13.4 uM) was 18% and the “plaques (determinations 1 and 2)” value ([5]; PhosphatidylACV 13.4 uM) was 4 and 6. For the same molecule, the “plaques, mean” value ([5]; PhosphatidylACV 13.4 uM) was 5, the “% no Drug” value ([5]; PhosphatidylACV 27 uM) was 9% and the “plaques (determinations 1 and 2)” value ([5]; PhosphatidylACV 27 uM) was 2 and 3. For the same molecule, the “plaques, mean” value ([5]; PhosphatidylACV 27 uM) was 2.5, the “% no Drug” value ([5]; PhosphatidylACV 54 uM) was 0% and the “plaques (determinations 1 and 2)” value ([5]; PhosphatidylACV 54 uM) was 0. The “plaques, mean” value ([5]; PhosphatidylACV 54 uM) was 0, the “% no Drug” value ([5]; PhosphatidylACV 107 uM) was 0% and the “plaques (determinations 1 and 2)” value ([5]; PhosphatidylACV 107 uM) was 0. The “plaques, mean” value ([5]; PhosphatidylACV 107 uM) was 0.
